From article PMC11643494, “Structure–Activity Relationship Studies in a Series of 2-Aryloxy-N-(pyrimidin-5-yl)acetamide Inhibitors of SLACK Potassium Channels” (Molecules, 2024) come the findings set out here.

Usually IC50 stands for the point on the concentration scale where inhibition reaches its midpoint. The low end stands for inhibition by little substance, the high end for a need for much substance.

This experiment concerns the target T1, Human A934T SLACK (Homo sapiens, UniProt Q5JUK3, A915T).
T1 construct: host or cells: CHO-K1
T1 sequence (Q5JUK3 1-1235 isoform Q5JUK3-3 A934T): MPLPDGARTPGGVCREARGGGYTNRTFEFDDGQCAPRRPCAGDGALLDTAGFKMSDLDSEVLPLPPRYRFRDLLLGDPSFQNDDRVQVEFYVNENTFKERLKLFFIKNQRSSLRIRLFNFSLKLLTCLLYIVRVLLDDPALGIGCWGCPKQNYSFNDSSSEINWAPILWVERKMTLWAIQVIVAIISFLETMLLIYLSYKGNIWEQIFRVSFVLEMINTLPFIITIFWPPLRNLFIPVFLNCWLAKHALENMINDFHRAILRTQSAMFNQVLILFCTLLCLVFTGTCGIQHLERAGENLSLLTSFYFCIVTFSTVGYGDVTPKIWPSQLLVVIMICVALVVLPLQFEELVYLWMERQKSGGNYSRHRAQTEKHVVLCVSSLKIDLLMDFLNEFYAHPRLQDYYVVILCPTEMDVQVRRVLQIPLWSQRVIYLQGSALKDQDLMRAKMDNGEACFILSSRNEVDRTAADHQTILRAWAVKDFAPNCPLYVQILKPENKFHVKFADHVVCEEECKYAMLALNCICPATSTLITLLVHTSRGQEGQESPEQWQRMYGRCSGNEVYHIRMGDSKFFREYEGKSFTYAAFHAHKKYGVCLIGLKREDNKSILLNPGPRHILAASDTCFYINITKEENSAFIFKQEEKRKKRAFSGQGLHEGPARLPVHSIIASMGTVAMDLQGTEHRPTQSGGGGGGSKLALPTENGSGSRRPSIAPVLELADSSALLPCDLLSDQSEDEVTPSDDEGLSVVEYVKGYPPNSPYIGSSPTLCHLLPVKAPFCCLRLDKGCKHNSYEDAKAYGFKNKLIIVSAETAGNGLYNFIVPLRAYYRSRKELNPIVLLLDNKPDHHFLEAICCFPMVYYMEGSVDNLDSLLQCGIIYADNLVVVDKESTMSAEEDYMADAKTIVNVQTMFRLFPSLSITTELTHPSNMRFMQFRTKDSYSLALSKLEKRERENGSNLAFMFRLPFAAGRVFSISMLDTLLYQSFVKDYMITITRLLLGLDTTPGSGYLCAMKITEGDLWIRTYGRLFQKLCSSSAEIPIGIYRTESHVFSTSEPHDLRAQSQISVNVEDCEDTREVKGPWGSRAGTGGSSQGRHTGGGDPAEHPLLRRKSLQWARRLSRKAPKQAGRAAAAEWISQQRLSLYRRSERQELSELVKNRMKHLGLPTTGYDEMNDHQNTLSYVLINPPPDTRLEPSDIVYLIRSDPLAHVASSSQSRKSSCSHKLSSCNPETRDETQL
The experiment is described as follows: Whole-cell APC in CHO-K1 cells stably expressing human A934T SLACK. The format is cell-based. Conditions: for IC50: APC, CHO-K1 cells; for Imax: maximum inhibition at 30 µM standardized to VU0606170 (set at 100%). The source says:
Finally, we chose to screen the same two compounds versus mouse SLACK and two clinically relevant GOF SLACK mutants in APC assays utilizing CHO-K1 cells stably expressing these targets (Table 7). Screening versus the mouse homolog was deemed important for evaluating the potential of the series to ultimately lead to a useful in vivo tool via further optimization.
Stably transfected monoclonal HEK293 cell lines expressing SLICK, Maxi-K α1/β3, Maxi-K α1/β4, CaV3.2, GIRK 1/2, KV2.1, KV7.2, NaV1.7, and TASK-1 were generated as previously described. Stably transfected monoclonal HEK293 cell lines expressing hERG were generated as previously described. CHO-K1 cells expressing human SLACK and disease-associated human SLACK mutations, G288S and A934T, were generated by transfecting a PiggyBac TRE mammalian expression vector (VectorBuilder, Chicago, IL, USA) containing KCNT1. FuGENE 6 (Promega, Madison, WI, USA) transfection reagent and protocol, together with Opti-MEM (Thermo Fisher Scientific, Waltham, MA, USA), were utilized according to the manufacturer’s instructions.
Automated patch clamp recording was performed with a SyncroPatch 768 PE system (Nanion, Munich, Germany) as previously described. Whole-cell recordings were performed at room temperature. Cells were harvested by first washing with PBS without Mg^2+ or Ca^2+ (Gibco, Billings, MT, USA) to remove cell culture medium, followed by dissociation with TryPLE (Gibco, Billings, MT, USA). Cells were then resuspended and diluted to 200,000 cells/mL in external solution. External solution contained 105 mM NaCl, 4 mM KCl, 1 mM MgCl2, 5 mM CaCl2, 10 mM HEPES, 40 mM N-Methyl-D-glucamine chloride, titrated to pH 7.4 with NaOH and osmolarity of 300 mOsm/kg; internal solution contained 70 mM NaCl, 70 mM KF, 10 mM KCl, 5 mM EGTA, 5mM HEPES, titrated to a pH 7.2 with KOH and osmolarity of 295 mOsm/kg.
The APC protocol was set as following: Cells were held at […] −80 mV for 100 ms, then a ramp protocol was performed from −100 mV to 80 mV at 0.4 mV/ms, hold the cell at −80 mV for another 100 ms, then steps were performed at −20 mV, 0 mV, +20 mV, +40 mV, and +60 mV for 100 ms of each step. Whole-cell currents were measured at 0 mV and normalized to current after external buffer addition.

In turn, `CC(C)(Oc1ccc(Cl)cc1)C(=O)Nc1cnc(Oc2c(F)cccc2F)nc1` [Analog 40] returned an IC50 of 410 nM and an Imax of 96%.

`CN(c1ccc(C#N)cc1)c1ncc(NC(=O)C(C)(C)Oc2ccc(Cl)cc2)cn1` [Analog 66] registered an IC50 of 1200 nM and an Imax of 84%.
